The nature of the data set: HILIC, Waters ACQUITY UPLC BEH Amide, 100 × 2.1 mm, 1.7 µm; A: water + 0.125% formic acid + 10 mM ammonium formate; B: 5% water + 95% acetonitrile + 0.125% formic acid + 10 mM ammonium formate; gradient (min/%B) 0/100 2/100 7.7/70 9.5/40 10.25/30 12.75/100 17/100. Particulars: stereoisomer not certain.
With `NCC1CCC(C(=O)Oc2ccc(CCC(=O)O)cc2)CC1` (stereo unspecified) [Cetraxate], the LC retention time was determined as 5.29 min.

For `CN=C1CN(O)C(c2ccccc2)=c2cc(Cl)ccc2=N1` [Chlordiazepoxide], the LC retention time turned out to be 1.35 min.

As to `O=C(C=Cc1ccc(O)c(O)c1)OC1CC(O)(C(=O)O)CC(O)C1O` (stereo unspecified) [Chlorogenic acid], the LC retention time was 6.68 min.

For `CN(C)CCC(c1ccc(Cl)cc1)c1ccccn1` (stereo unspecified) [Chlorpheniramine], the LC retention time is 2.54 min.

For `C[N+](C)(C)CCO` [Choline [M]+], the LC retention time came out at 5.18 min.

Regarding `CC1(C)CC1C(=O)NC(=CCCCCSCC(N)C(=O)O)C(=O)O` (stereo unspecified) [Cilastatin], the LC retention time came out at 7.63 min.

On to `CN(C)CCCSc1ccccc1NC(=O)C=Cc1ccccc1` [Cinanserin], for which the LC retention time came to 2.61 min.

For `O=CC=Cc1ccccc1` [Cinnamaldehyde], the LC retention time amounted to 9.18 min.

In the case of `COc1cc(N)c(Cl)cc1C(=O)NC1CCN(CCCOc2ccc(F)cc2)CC1OC` (stereo unspecified) [Cisapride], the LC retention time was 2.28 min.

`NC(=O)NCCCC(N)C(=O)O` (stereo unspecified) [Citrulline]: the LC retention time was 8.74 min.

`Nc1nc(Cl)nc2c1ncn2C1CC(O)C(CO)O1` (stereo unspecified) [Cladribine]: the LC retention time came to 1.95 min.

Turning to `CCC1OC(=O)C(C)C(OC2CC(C)(OC)C(O)C(C)O2)C(C)C(OC2OC(C)CC(N(C)C)C2O)C(C)(OC)CC(C)C(=O)C(C)C(O)C1(C)O` (stereo unspecified) [Clarithromycin], the LC retention time was 3 min.

`CN1C(=O)CC(=O)N(c2ccccc2)c2cc(Cl)ccc21` [Clobazam]: the LC retention time is 1.1 min.

With `NC(=NCc1ccc(Cl)cc1)SCCCc1cnc[nH]1` [Clobenpropit], the LC retention time was determined as 6.13 min.

Consider `CC(C)N=c1cc2n(-c3ccc(Cl)cc3)c3ccccc3nc-2cc1Nc1ccc(Cl)cc1` [Clofazimine], for which the LC retention time turned out to be 1.78 min.

For the compound `CN(C)CCCN1c2ccccc2CCc2ccc(Cl)cc21` [Clomipramine], the LC retention time was 2.31 min.

Take `Clc1cccc(Cl)c1NC1=NCCN1` [Clonidine]: the LC retention time amounted to 2.85 min.

Take `CCOC(=O)C1C(OC(=O)c2ccccc2)CC2CCC1N2C` (stereo unspecified) [Cocaethylene]: the LC retention time is 2.12 min.

Regarding `COC(=O)C1C(OC(=O)c2ccccc2)CC2CCC1N2C` (stereo unspecified) [Cocaine], the LC retention time worked out at 2.2 min.

For `COc1cc(C=CC=O)ccc1O` [Coniferylaldehyde], the LC retention time worked out at 1.14 min.

In the case of `Nc1ncnc2c1ncn2C1OC(CO)CC1O` (stereo unspecified) [Cordycepin], the LC retention time is 3.54 min.

On to `CC12CCC(=O)C=C1CCC1C2C(O)CC2(C)C(C(=O)CO)CCC12` (stereo unspecified) [Corticosterone], for which the LC retention time is 1.25 min.

As to `CC12CCC(=O)C=C1CCC1C2C(=O)CC2(C)C1CCC2(O)C(=O)CO` (stereo unspecified) [Cortisone], the LC retention time came to 1.29 min.

For `CC12CCC(=O)C=C1CCC1C2CCC2(C)C1CCC2(O)C(=O)CO` (stereo unspecified) [Cortodoxone], the LC retention time is 1.15 min.

`COc1cc2c(cc1OC)C1C(C)c3ccc(OC)c(OC)c3CN1CC2` (stereo unspecified) [Corydaline]: the LC retention time was determined as 1.52 min.

With `CN1C(=O)CCC1c1cccnc1` (stereo unspecified) [Cotinine], the LC retention time was 1.49 min.

For the compound `O=c1ccc2ccccc2o1` [Coumarin], the LC retention time came out at 1.08 min.

For the compound `CN(CC(=O)O)C(=N)N` [Creatine], the LC retention time was determined as 8.15 min.

In the case of `CN1CC(=O)NC1=N` [Creatinine], the LC retention time amounted to 4.93 min.

As to `CC=CC(=O)N(CC)c1ccccc1C` [Crotamiton], the LC retention time is 0.97 min.

Turning to `CC(C)CC1NC(=O)C2CCCN2C1=O` (stereo unspecified) [Cyclo(Leu-Pro)], the LC retention time stood at 1.29 min.

With `NC1CCCCC1` [Cyclohexanamine], the LC retention time turned out to be 5.1 min.

Take `CN1CCC(=C2c3ccccc3C=Cc3ccccc32)CC1` [Cyproheptadine]: the LC retention time came out at 2.31 min.

On to `NC(CCSCC(N)C(=O)O)C(=O)O` (stereo unspecified) [Cystathionine], for which the LC retention time was found to be 9.91 min.

`NC(CS(=O)(=O)O)C(=O)O` (stereo unspecified) [Cysteic acid]: the LC retention time was 8.92 min.

As to `NC(CS)C(=O)O` (stereo unspecified) [Cysteine], the LC retention time came out at 5.31 min.

On to `NC(CSSCC(N)C(=O)O)C(=O)O` (stereo unspecified) [Cystine], for which the LC retention time came out at 9.97 min.

Take `Nc1ccn(C2OC(COP(=O)(O)O)C(O)C2O)c(=O)n1` (stereo unspecified) [Cytidine-5'-monophosphate]: the LC retention time is 9.48 min.

`Nc1ccnc(=O)[nH]1` [Cytosine]: the LC retention time is 5.9 min.

Consider `O=c1c(-c2ccc(O)cc2)coc2cc(O)ccc12` [Daidzein], for which the LC retention time is 1.39 min.

Turning to `CCCCCCCCCC=O` [Decanal], the LC retention time came to 2.17 min.

As for `CC(CCC(=O)O)C1CCC2C3C(=O)CC4CC(=O)CCC4(C)C3CC(=O)C12C` (stereo unspecified) [Dehydrocholic acid], the LC retention time came out at 1.16 min.

`CC12CCC3C(CC=C4CC(O)CCC43C)C1CCC2=O` (stereo unspecified) [Dehydroepiandrosterone]: the LC retention time came to 1.03 min.

As for `O=c1ccn(C2CC(O)C(COP(=O)(O)O)O2)c(=O)[nH]1` (stereo unspecified) [Deoxyuridine monophosphate], the LC retention time turned out to be 8.25 min.

As for `Clc1ccc2c(c1)CCc1cccnc1C2=C1CCNCC1` [Desloratadine], the LC retention time was 4.9 min.

For the compound `CC1CC2C3CCC4=CC(=O)C=CC4(C)C3(F)C(O)CC2(C)C1C(=O)CO` (stereo unspecified) [Desoximetasone], the LC retention time was 1.13 min.

As for `CS(=O)CCCCC(=NO)SC1OC(CO)C(O)C(O)C1O` (stereo unspecified) [Desulfo Glucoraphanin], the LC retention time came out at 6.61 min.

Consider `CN(C)CCC(c1ccc(Br)cc1)c1ccccn1` (stereo unspecified) [Dexbrompheniramine], for which the LC retention time came to 2.56 min.

For `COc1ccc2c(c1)C13CCCCC1C(C2)N(C)CC3` (stereo unspecified) [Dextromethorphan], the LC retention time worked out at 2.64 min.

Consider `CN1CCC23CCCCC2C1Cc1ccc(O)cc13` (stereo unspecified) [Dextrorphan], for which the LC retention time was determined as 3.87 min.

On to `CN1C(=O)CN=C(c2ccccc2)c2cc(Cl)ccc21` [Diazepam], for which the LC retention time came to 1.1 min.

Consider `CC1=NS(=O)(=O)c2cc(Cl)ccc2N1` [Diazoxide], for which the LC retention time worked out at 1.09 min.

Consider `O=C(O)Cc1ccccc1Nc1c(Cl)cccc1Cl` [Diclofenac], for which the LC retention time worked out at 1.08 min.

In the case of `COc1cc(CNC(=O)CCCCCCC(C)C)ccc1O` [Dihydrocapsaicin], the LC retention time came to 1.07 min.

Regarding `CCCCCCCCCCCCCCCC(O)C(N)CO` (stereo unspecified) [Dihydrosphingosine], the LC retention time is 4.47 min.

With `CC(CO)CCNc1ncnc2nc[nH]c12` (stereo unspecified) [Dihydrozeatin], the LC retention time was 2.99 min.

Regarding `COC(=O)c1ccccc1C(=O)OC` [Dimethyl phthalate], the LC retention time was 1.04 min.

Regarding `CCCCCCCCOC(=O)c1ccccc1C(=O)OCCCCCCCC` [Dioctyl Phthalate], the LC retention time is 0.96 min.

As to `CN(C)CCOC(c1ccccc1)c1ccccc1` [Diphenhydramine], the LC retention time is 2.15 min.

As to `CCOC(=O)C1(c2ccccc2)CCN(CCC(C#N)(c2ccccc2)c2ccccc2)CC1` [Diphenoxylate], the LC retention time was 1.41 min.

`O=c1c(-c2ccccc2)c1-c1ccccc1` [Diphenylcyclopropenone]: the LC retention time stood at 1.01 min.
